This passage reports activity results from patent US20090253755A1, “N-[(PYRIDIN-2-YL) METHOXY] BENZAMIDE DERIVATIVES AND RELATED COMPOUNDS AS FUNGICIDES” (Bayer Cropscience SA, priority 2006, published 2009).

This assay deals with Alternaria alternata. In words: Cell test on Alternaria alternata. The class given is cell-based. The settings on record: under similar conditions (cell test, 2 ppm). How it is done: Cell Test on Alternaria alternata
The growth of Alternaria alternata is performed on PDA medium at 20° C. under black light during 14 days. The PDA medium is prepared by mixing 39 grams of PDA (Merck) in 1 liter of demineralized water.
The medium is sterilized by autoclave 15 minutes at 121° C. After 14 days of growth, the spores of Alternaria alternata are recovered in sterilized water and the concentration of spores adjusted to 10^6 spores per ml.
The compounds is solubilized in DMSO and added to sterile liquid glucose/mycopeptone medium (14.6 g/l of D-glucose, 7.1 g/l of mycological peptone (Oxoid) and 1.4 g/l of yeast extract (Merck)) at a concentration of 2 ppm.
The medium is inoculated with the spore suspension at a concentration of 10^5 spores per ml.
The efficacy of the compounds is assessed by OD measurement at 620 nm after 5 days at 20° C. in comparison with a control.

Structures are written as SMILES.

In the case of `O=C(NOCc1ncc(C(F)(F)F)cc1Cl)c1c(Cl)cccc1Cl` [Compound 501, 2,6-dichloro-N-{[3-chloro-5-(trifluoromethyl)pyridin-2-yl]methoxy}benzamide], the activity result is reported as “did not show any activity”.
In the case of `O=C(NOCc1ncc(C(F)(F)F)cc1Cl)c1c(F)cccc1F` [Compound 502, N-{[3-chloro-5-(trifluoromethyl)pyridin-2-yl]methoxy}-2,6-difluorobenzamide], the activity entry is listed as “did not show any activity”.
